# System: K24384-001-R-PDC complex spheroid growth
# Test: Anticancer human tumor K24384-001-R-PDC patient-derived pancreatic adenocarcinoma cell line growth inhibition [AhR]
# Details: for IC50: curve of first compound; for viability, T/C: stronger effect = lower value
# How it was run: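 Complex tumor spheroids co-cultured with HUVEC and human MSC stroma; AhR antagonists tested in combination with standard-of-care and investigational agents. Top concentration at or near clinical Cmax (else 10 microM), half-log dilutions; growth expressed as percent test/control.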
# [1] = second compound 0.1 µM, first compound 0.0316 µM
# [2] = second compound 0.1 µM, first compound 0.1 µM
# [3] = second compound 0.316 µM, first compound 0.0316 µM
# [4] = second compound 0.316 µM, first compound 0.1 µM
# [5] = second compound 1 µM, first compound 0.0316 µM
# [6] = second compound 1 µM, first compound 0.1 µM
# [7] = second compound 3.16 µM, first compound 0.0316 µM
# [8] = second compound 3.16 µM, first compound 0.1 µM
# [9] = second compound 10 µM, first compound 0.0316 µM
# [10] = second compound 10 µM, first compound 0.1 µM
# [11] = second compound 0.1 µM, first compound 0.316 µM
# [12] = second compound 0.1 µM, first compound 1 µM
# [13] = second compound 0.1 µM, first compound 3.16 µM
# [14] = second compound 0.1 µM, first compound 10 µM
# [15] = second compound 0.316 µM, first compound 0.316 µM
# [16] = second compound 0.316 µM, first compound 1 µM
# [17] = second compound 0.316 µM, first compound 3.16 µM
# [18] = second compound 0.316 µM, first compound 10 µM
# [19] = second compound 1 µM, first compound 0.316 µM
# [20] = second compound 1 µM, first compound 1 µM
# [21] = second compound 1 µM, first compound 3.16 µM
# [22] = second compound 1 µM, first compound 10 µM
# [23] = second compound 3.16 µM, first compound 0.316 µM
# [24] = second compound 3.16 µM, first compound 1 µM
# [25] = second compound 3.16 µM, first compound 3.16 µM
# [26] = second compound 3.16 µM, first compound 10 µM
# [27] = second compound 10 µM, first compound 0.316 µM
# [28] = second compound 10 µM, first compound 1 µM
# [29] = second compound 10 µM, first compound 3.16 µM
# [30] = second compound 10 µM, first compound 10 µM
# 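Throughout, for viability, T/C: percent of DMSO vehicle-treated spheroid viability set as 100%.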
SMILES,IC50 (second compound 0.1 µM),IC50 (second compound 0.316 µM),IC50 (second compound 1 µM),IC50 (second compound 3.16 µM),IC50 (second compound 10 µM),"viability, T/C [1]","viability, T/C [2]","viability, T/C [3]","viability, T/C [4]","viability, T/C [5]","viability, T/C [6]","viability, T/C [7]","viability, T/C [8]","viability, T/C [9]","viability, T/C [10]","viability, T/C [11]","viability, T/C [12]","viability, T/C [13]","viability, T/C [14]","viability, T/C [15]",also measured
CC[C@@]1(O)C(=O)OCc2c1cc1n(c2=O)Cc2cc3c(CN(C)C)c(O)ccc3nc2-1 + CC(CO)NC(=O)c1cc(-c2ccc(Cl)cc2)nn(-c2cnn(C)c2)c1=O,76.3 nM,47.9 nM,31.7 nM,42 nM,> 100 nM,64%,45.7%,54.7%,42.2%,57.3%,39.8%,53.5%,39.1%,52%,49.8%,–,–,–,–,–,"viability, T/C (second compound 0.1 µM, first compound 0.000316 µM): 103%; viability, T/C (second compound 0.1 µM, first compound 0.001 µM): 101%; viability, T/C (second compound 0.1 µM, first compound 0.00316 µM): 100%; viability, T/C (second compound 0.1 µM, first compound 0.01 µM): 87.7%; viability, T/C (second compound 0.316 µM, first compound 0.000316 µM): 93.4%; viability, T/C (second compound 0.316 µM, first compound 0.001 µM): 111%; viability, T/C (second compound 0.316 µM, first compound 0.00316 µM): 99%; viability, T/C (second compound 0.316 µM, first compound 0.01 µM): 84.2%; viability, T/C (second compound 1 µM, first compound 0.000316 µM): 94.2%; viability, T/C (second compound 1 µM, first compound 0.001 µM): 120%; viability, T/C (second compound 1 µM, first compound 0.00316 µM): 104%; viability, T/C (second compound 1 µM, first compound 0.01 µM): 71.2%; viability, T/C (second compound 3.16 µM, first compound 0.000316 µM): 114%; viability, T/C (second compound 3.16 µM, first compound 0.001 µM): 103%; viability, T/C (second compound 3.16 µM, first compound 0.00316 µM): 90.9%; viability, T/C (second compound 3.16 µM, first compound 0.01 µM): 71.8%; viability, T/C (second compound 10 µM, first compound 0.000316 µM): 87.6%; viability, T/C (second compound 10 µM, first compound 0.001 µM): 81.9%; viability, T/C (second compound 10 µM, first compound 0.00316 µM): 100%; viability, T/C (second compound 10 µM, first compound 0.01 µM): 67.3%"
NS(=O)(=O)OCC1CC(n2ccc3c(NC4CCc5ccccc54)ncnc32)CC1O (stereo not given) + Cc1cncc(-c2nc(NCCc3c[nH]c4ccccc34)c3ncn(C(C)C)c3n2)c1,2330 nM,2320 nM,2370 nM,1510 nM,< 31.6 nM,130%,150%,141%,161%,167%,154%,132%,153%,27.1%,15.2%,67.3%,107%,29.7%,29.1%,56.1%,"viability, T/C [16]: 124%; viability, T/C [17]: 24%; viability, T/C [18]: 23.6%; viability, T/C [19]: 62%; viability, T/C [20]: 84.6%; viability, T/C [21]: 27.9%; viability, T/C [22]: 27%; viability, T/C [23]: 59.8%; viability, T/C [24]: 86.4%; viability, T/C [25]: 20.4%; viability, T/C [26]: 20.6%; viability, T/C [27]: 10.5%; viability, T/C [28]: 11.1%; viability, T/C [29]: 5.02%; viability, T/C [30]: 5.87%"
O=C(C=Cc1cccc(S(=O)(=O)Nc2ccccc2)c1)NO + Cc1ccccc1N=Nc1ccc(NC(=O)c2ccnn2C)c(C)c1,2350 nM,2440 nM,2260 nM,2270 nM,2560 nM,137%,128%,135%,144%,136%,135%,102%,127%,128%,128%,126%,92.2%,35.2%,6.57%,121%,"viability, T/C [16]: 107%; viability, T/C [17]: 32.6%; viability, T/C [18]: 6.91%; viability, T/C [19]: 126%; viability, T/C [20]: 87%; viability, T/C [21]: 35.1%; viability, T/C [22]: 6.47%; viability, T/C [23]: 123%; viability, T/C [24]: 86.5%; viability, T/C [25]: 35.9%; viability, T/C [26]: 5.9%; viability, T/C [27]: 115%; viability, T/C [28]: 89%; viability, T/C [29]: 41.1%; viability, T/C [30]: 7.02%"
COc1ccc([C@@H](O)c2cc(-c3ncnc4cc(N5CCOCC5)ccc34)c(F)cc2Cl)nn1 + Cc1cncc(-c2nc(NCCc3c[nH]c4ccccc34)c3ncn(C(C)C)c3n2)c1,4410 nM,2820 nM,2820 nM,1940 nM,< 31.6 nM,88%,93.3%,109%,106%,84.1%,94.5%,76.8%,98.2%,9.83%,8.38%,93.2%,68.5%,57.8%,38.4%,86.2%,"viability, T/C [16]: 68.4%; viability, T/C [17]: 48%; viability, T/C [18]: 36.6%; viability, T/C [19]: 118%; viability, T/C [20]: 96.7%; viability, T/C [21]: 44.9%; viability, T/C [22]: 33.9%; viability, T/C [23]: 71.1%; viability, T/C [24]: 54.7%; viability, T/C [25]: 50.7%; viability, T/C [26]: 31.9%; viability, T/C [27]: 6.49%; viability, T/C [28]: 8.45%; viability, T/C [29]: 9.55%; viability, T/C [30]: 13.7%"
